One may read the MIC as the least concentration at which growth counts as inhibited.

In brackets after ≈: the same amount, converted by molar mass.

Test [1] deals with Acinetobacter calcoaceticus subsp. anitratus. As to the kind of experiment: In vitro antibacterial activity of compound was measured against gram negative Acinetobacter anitratus 150001. Format: functional.
Test [2] has as its system Alcaligenes faecalis. The test is described as follows: In vitro antibacterial activity of compound was measured against gram negative Alcaligenes faecalis 140001. Format: functional.
For test [3], the system named is Bacteroides fragilis. As to the kind of experiment: In vitro antibacterial activity of compound was measured against gram negative Bacteroides fragilis ATCC 25285. Format: functional.
In test [4] the test system is Bacillus subtilis. As to the kind of experiment: In vitro antibacterial activity of compound was measured against gram positive Bacillus subtilis ATCC 6633. Format: functional.
In test [5] the test system is Clostridium perfringens. The test is described as follows: In vitro antibacterial activity of compound was measured against gram positive Clostridium perfringens 70500. The class given is functional.
In test [6] the test system is Escherichia coli. The test is described as follows: In vitro antibacterial activity of compound was measured against gram negative Escherichia coli 6R. Format: functional.
Test [7] deals with Escherichia coli. As to the kind of experiment: In vitro antibacterial activity of compound was measured against gram negative Escherichia coli K12. The class given is functional.
Test [8] has as its system Klebsiella pneumoniae. As to the kind of experiment: In vitro antibacterial activity of compound was measured against gram negative Klebsiella pneumoniae ATCC 10031. Format: functional.
Test [9] relates to Mycobacterium tuberculosis. The test is described as follows: In vitro antibacterial activity of compound was measured against gram positive Mycobacterium tuberculosis H37Rv (human). Format: functional.
The test system of test [10] is Proteus vulgaris. As to the kind of experiment: In vitro antibacterial activity of compound was measured against gram negative Proteus vulgaris XL. The class given is functional.
In test [11] the test system is Proteus inconstans. The test is described as follows: In vitro antibacterial activity of compound was measured against gram negative Proteus inconstans NCTC 8055. Format: functional. The note with it: Providencia alcalifaciens.
Test [12] concerns Salmonella typhimurium. The test is described as follows: In vitro antibacterial activity of compound was measured against gram negative Salmonella Typhimurium 51. The following applies: Salmonella enterica. Format: functional, Salmonella enterica subsp. enterica serovar Typhimurium.
The test system of test [13] is Serratia marcescens. The test is described as follows: In vitro antibacterial activity of compound was measured against gram negative Serratia marcescens. The class given is functional.
In test [14] the test system is Shigella sonnei. As to the kind of experiment: In vitro antibacterial activity of compound was measured against gram negative Shigella sonnei. The class given is functional.
In test [15] the test system is Streptococcus pneumoniae. The test is described as follows: In vitro antibacterial activity of compound was measured against gram positive Streptococcus pneumoniae. The class given is functional.
Test [16] relates to Staphylococcus aureus. The test is described as follows: In vitro antibacterial activity of compound was measured against gram positive Staphylococcus aureus 1110 pen.rez. Format: functional.
The test system of test [17] is Staphylococcus aureus. The test is described as follows: In vitro antibacterial activity of compound was measured against gram positive Staphylococcus aureus SMITH. The class given is functional.
Test [18] concerns Streptococcus pyogenes. As to the kind of experiment: In vitro antibacterial activity of compound was measured against gram positive Streptococcus pyogenes A 115 ROBB. The class given is functional.
The subject of test [19] is Streptococcus pyogenes. The test is described as follows: In vitro antibacterial activity of compound was measured against gram positive Streptococcus pyogenes A 118. Format: functional.
The test system of test [20] is Enterococcus faecalis. The test is described as follows: In vitro antibacterial activity of compound was measured against gram positive Streptococcus faecalis. The class given is functional.
Test [21] has as its system Pseudomonas aeruginosa. As to the kind of experiment: In vitro antibacterial activity of compound was measured against gram negative Pseudomonas pyocyanea NCTC 10490. The class given is functional, pseudomona pyocyanea.
Test [22] relates to Mycobacterium tuberculosis. As to the kind of experiment: In vitro antibacterial activity of compound was measured against gram positive Mycobacterium tuberculosis Ravenel(bovin). The class given is functional.
In test [23] the test system is Bordetella bronchiseptica. The test is described as follows: In vitro antibacterial activity of compound was measured against gram negative Bordetella bronchiseptica ATCC 4617. The class given is functional.

As for `CN1CCN(c2c(F)cc3c(=O)c(C(=O)O)cn(N4CC4c4ccccn4)c3c2F)CC1` (stereo not drawn), the MIC in [1] is above 100 µg/mL; in test [2], above 100 µg/mL; in [3], above 100 µg/mL; in [4] it was above 100 µg/mL; in test [5], 100 µg/mL (≈ 227 µM); in test [6], above 100 µg/mL. The MIC in [7] stood at 50 µg/mL (≈ 113 µM); in test [8] it was 12.5 µg/mL (≈ 28.3 µM); in [9] it was 100 µg/mL (≈ 227 µM); in test [10] it was 25 µg/mL (≈ 56.6 µM); in test [11] it was 50 µg/mL (≈ 113 µM); in [12] it was 25 µg/mL (≈ 56.6 µM). Further, the minimum inhibitory concentration (MIC) in test [13] is 25 µg/mL (≈ 56.6 µM); in test [14], 6.2 µg/mL (≈ 14 µM); in [15], 100 µg/mL (≈ 227 µM); in [16] it was above 100 µg/mL; in [17], above 100 µg/mL; in test [18], above 100 µg/mL. In addition, the MIC in test [19] is above 100 µg/mL; in [20], above 100 µg/mL; in test [21], above 100 µg/mL; in [22] it was 50 µg/mL (≈ 113 µM); in [23], above 100 µg/mL.

The values above are taken from ChEMBL document CHEMBL1129105, “Synthesis and biological evaluation of N-(1-aziridino)-6-fluoro-quinolone-3-carboxylic acids” (1996).
